Experiments:
Slc:SD rats = experiment: Test Example 2: genital organ weights 1 week after ethynylestradiol dosing for 10 days; type: in vivo, rat; details: ethynylestradiol 3 mg/kg orally once daily for 10 days, weighed 1 week after the course, n = 10
Method: Slc:SD rats aged 10 weeks (in groups of 10) were orally dosed with 3 mg/kg of the endocrine disturbing chemical ethynylestradiol suspended in 0.5% sodium carboxymethylcellulose (CMC) solution (ethynylestradiol 0.3 mg/mL) or, as control, 10 mL/kg of 0.5% CMC solution once daily in the morning for 10 days, and at 1 week after the administration course, the testis, epididymis, prostate and seminal vesicle were respectively weighed.
Rat husbandry conditions: room temperature 21˜25° C., humidity 45˜60%, artificial lighting 12 hrs (7:00 a.m.˜7:00 p.m.), ventilation frequency 15/hr, solid food (CE-2, CLEA Japan Inc.) and drinking water ad libitum.

SD rats = experiment: Test Example 1: genital organ weights after ethynylestradiol dosing for 2 weeks; type: in vivo, rat; details: ethynylestradiol 3 mg/kg orally once daily for 2 weeks, n = 8
Method: SD rats aged 11 weeks (in groups of 8) were orally dosed with 3 mg/kg of the endocrine disturbing chemical ethynylestradiol suspended in 0.5% sodium carboxymethylcellulose (CMC) solution (ethynylestradiol 0.6 mg/mL) or, as control, 5 mL/kg of 0.5% CMC solution once daily in the morning for 2 weeks, and after the administration course, the testis, epididymis, prostate and seminal vesicle were respectively weighed.
Rat husbandry conditions: room temperature 21˜25° C., humidity 45˜60%, artificial lighting 12 hrs (7:00 a.m.˜7:00 p.m.), ventillation frequency 15/hr, solid food (CE-2, CLEA Japan Inc.) and drinking water ad libitum.

[1] = system: rats with the genital organs impaired by ethynylestradiol; details: rat, in vivo
Method: Using rats with the genital organs impaired by ethynylestradiol as in Test Example 2, the sperm count and motile sperm rate were investigated.
From the right epididymis, the caudal epididymis was excised and weighed with Sartorius electronic balance LC620-S. The caudal epididymis was placed in a sperm collection vial containing 5 mL of BSA-Hanks solution and cut 3 times to cause the sperm to swim out. A 0.05 mL portion of the sperm fluid was sampled and diluted with 0.95 mL of BSA-Hanks solution for use as a diluted sperm fluid. The number of non-motile sperms in the diluted sperm fluid was determined with Thoma's hemocytometer. After this counting of non-motile sperms, the vessel containing the diluted sperm fluid was immersed in hot water and, after return to room temperature, the sperms were counted with the hemocytometer. […] Using the measured values, the motile sperm rate was calculated by means of the following equation [1]. Motile sperm rate (%)=(number of sperms−number of non-motile sperms)/number of sperms×100 [1] (2) Method for Determination of Sperm Count
The caudal epididymis in the sperm collection vial used in the above procedure (1) was further cut to release sperms and the fluid in the vial was filtered through a nylon-mesh sieve. The stock filtrate, 0.1 mL, was diluted with 1.9 mL of formalinized saline and the number of sperms was determined with Thoma's hemocytometer. When the sperm population in the sperm sample was considered to be too small (low turbidity), the stock sperm fluid was not diluted but the vessel was directly immersed in hot water and, after reutrn to room temperature, the number of sperms was determined. Moreover, the number of sperms (sperm count) per caudal epididymis was calculated using the number of sperms determined and the dilution factor by means of the equation given below, with the value per caudal epididymis unit weight (g) being taken as the sperm count/caudal epididymis and the value per epididymis as the sperm count/epididymis.
Sperm count=measured number of sperms×dilution factor Number of sperms/caudal epididymis=number of sperms determined×dilution factor/weight of the caudal epididymis epididymis (g) Number of sperms/epididymis=(number of sperms/caudal epididymis)×weight of epididymis (g)

Question: `C#C[C@]1(O)CC[C@H]2[C@@H]3CCc4cc(O)ccc4[C@H]3CC[C@@]21C` [Ethynylestradiol, ethynylestradiol] was tested. Which Epididymis weight (Slc:SD rats) did it give?
Answer: 154.5 ± mg/100 gBW

Question: What about the Prostate weight (Slc:SD rats) of the same compound?
Answer: 102.3 ± mg/100 gBW

Question: What about the Seminal vesicle weight (Slc:SD rats) of the same compound?
Answer: 170.0 ± mg/100 gBW

Question: What about the Testis weight (Slc:SD rats) of the same compound?
Answer: 731.3 ± mg/100 gBW

Question: What about the Epididymis weight (SD rats) of the same compound?
Answer: 118 mg/100 g body weight

Question: What about the Prostate weight (SD rats) of the same compound?
Answer: 77.4 mg/100 g body weight

Question: What about the Seminal vesicle weight (SD rats) of the same compound?
Answer: 88.1 mg/100 g body weight

Question: What about the Testis weight (SD rats) of the same compound?
Answer: 705 mg/100 g body weight

Question: And the “Caudal epididymis (weight, g)” value [1]?
Answer: 0.076 g

Question: What about the Motile sperm rate [1] of the same compound?
Answer: 40.6 ± %

Question: What about the Sperm count [1] of the same compound?
Answer: 13.0 ± x10^6

Question: And the Sperm count/caudal epididymis [1]?
Answer: 160.2 ± x10^6

Question: What about the Sperm count/epididymis [1] of the same compound?
Answer: 88.8 ± x10^6

Source: patent US6866872B1, “Withania somnifera Dunal extracts for increasing male sperm count” (Nippon Shinyaku Co., Ltd., priority 1999, dated 2005)
